We go through six compounds from US20260137754A1, “APPLICATION OF A COMBINATION DRUG IN THE TREATMENT OF PATHOGENIC BACTERIAL PERSISTENT INFECTIONS” (priority 2023, published 2026).

≈ marks a conversion by molar mass, not a printed value. Where “and” joins values, the source holds several entries; their conditions need not be identical. Equal values may be shown once. Read-outs that look alike come from different tables or passages of the source.

Data set [1] concerns wild-type E. coli BW25113. The data set can be described thus: Survival / persistence level (CFU) of stationary-phase culture diluted 1:20 into fresh LB with antibiotic. In kind it is cell-based, Escherichia coli. The conditions noted are these: for persistence survival level / persistence rate: monotherapy 10 hours, kanamycin 3 MIC, ciprofloxacin 20 MIC, ampicillin 20 MIC, polymyxin B 3 MIC. As for the experimental part:
(§1) The proportion of persisting cells in bacterial cultures typically reaches higher levels during the nutrient-depleted stationary phase. To investigate the persistence capacity of the model bacterium Escherichia coli(E. coli) against most bactericidal antibiotics, the standard BW25113 strain with E. coli K12 background was cultured at 37° C. in commercially available LB liquid medium until reaching the stationary phase. The culture was then inoculated at a 1:20 dilution into fresh LB liquid medium containing antibiotics at multiple dilutions of the minimum inhibitory concentration (MIC). Samples were collected after different treatment durations, and residual antibiotics were removed through two centrifugations. After tenfold serial dilution in physiological saline, the cultures were plated on LB agar plates without antibiotics. Survival colony-forming units (CFUs) were counted after two days of incubation, with initial CFU values before antibiotic addition serving as controls to calculate bacterial survival rates and persistence levels using conventional experimental methods. Testing for other bacteria followed the same protocol.
The culture was then incubated at 37° C. with shaking at 160 rpm for 10 hours. […] Each measurement was obtained from at least three independent experiments, with error bars representing the mean±standard deviation.

Data set [2] deals with wild-type E. coli BW25113. The data set can be described thus: Minimum inhibitory concentration (MIC). In kind it is cell-based, Escherichia coli.
The subject of a further data set is E. coli hipA7 strain. Conditions: for survival rate / viability: monotherapy 10 hours, kanamycin 3 MIC, ciprofloxacin 20 MIC, ampicillin 20 MIC, polymyxin B 3 MIC, mitomycin C 3 MIC. As for the experimental part:
as §1
(§2) Each measurement was obtained from at least three independent experiments, with error bars representing the mean±standard deviation.
as §2, §2

For data set [3] the following is noted: cited from earlier work.
For data set [4], the system named is E. coli hipA7 cells. Description: Membrane potential, DiSC3(5) dye, flow cytometry. Conditions: 0.9 μg/mL polymyxin B, 20 μg/mL kanamycin, combined or alone; up to 8 hours. Type of data set: cell-based, Escherichia coli.
Procedure: As represented by the combination antibiotic containing 0.9 μg/mL polymyxin B and 20 μg/mL kanamycin, the cell membrane damage in hipA7 cultures during stress-induced antibiotic killing was assessed. […] Samples were incubated at 37° C. with 160 rpm shaking for 8 hours. During sampling, 2.5 μM DiSC3 (5) was added in the first 10 minutes of each time point, followed by washing to remove the drugs and unbound dye. Flow cytometry was used to measure fluorescence intensity, with 100,000 cells analyzed per sample. […] Representative data from one of the experiments were selected for plotting.
For data set [5], the system named is E. coli hipA7 cells. Description: Cell membrane damage, propidium iodide (PI) staining. In kind it is cell-based, Escherichia coli. Conditions: single drug.
Procedure: Samples were incubated at 37° C. with 160 rpm shaking for 8 hours.
Parallel samples were treated with corresponding concentrations of individual drugs. Samples were collected at 0, 2, and 4 hours, with the addition of 5 μM PI dye 10 minutes prior to each collection time point. After washing with saline to remove antibiotics and extracellular dyes, cellular fluorescence intensity was analyzed by flow cytometry, with 100,000 cells analyzed per sample. The results from three independent experiments were basically the same. Representative data from one of the experiments were selected for plotting.
Setting [6] is: Escherichia coli, BW25113, read-out: MIC.
[7] abbreviates: clinical dosage guideline 2 mg/kg.

For `CC1(C)S[C@@H]2[C@H](NC(=O)[C@H](N)c3ccccc3)C(=O)N2[C@H]1C(=O)O` [ampicillin], the “persistence survival level / persistence rate” value in data set [1] is listed as 0.001%. The MIC (as a rule, the least concentration at which growth counts as inhibited) in data set [2] (setting [6]) is 6 µg/mL (≈ 17.2 µM). In addition, the “survival rate / viability” value with E. coli hipA7 strain is “Approximately 10%”.

For the compound `O=C(O)c1cn(C2CC2)c2cc(N3CCNCC3)c(F)cc2c1=O` [ciprofloxacin], the “persistence survival level / persistence rate” value in data set [1] is listed as 0.001%. The MIC in data set [2] (setting [6]) worked out at 0.03 µg/mL (≈ 0.0905 µM). For the same compound, in the data set with E. coli hipA7 strain, the “survival rate / viability” value is “Approximately 10%”.

Regarding `NC[C@H]1O[C@H](O[C@H]2[C@H](O)[C@@H](O[C@H]3O[C@H](CO)[C@@H](O)[C@H](N)[C@H]3O)[C@H](N)C[C@@H]2N)[C@H](O)[C@@H](O)[C@@H]1O` [kanamycin], the peak serum concentration in data set [3] (clinical) is 20 µg/mL and 18 to 20 µg/mL. Further, the viability decreased in data set [1] (kanamycin 24 μg/mL (3 MIC), 10 hours) is recorded as 100,000 fold. The “persistence survival level / persistence rate” value in data set [1] was 0.001%. Also, the MIC in data set [2] (setting [6]) was 8 µg/mL (≈ 16.5 µM). Besides, in the data set on E. coli hipA7 strain (3 MIC kanamycin, 10 hours), the “survival rate, times higher than that of wild-type E. coli” value is recorded as 10,000 times. Further, the “survival rate / viability” value with E. coli hipA7 strain is 10%.

Take `CO[C@@]12[C@H](COC(N)=O)C3=C(C(=O)C(C)=C(N)C3=O)N1C[C@@H]1N[C@@H]12` [mitomycin C]: in data set [2], the MIC was found to be 0.8 µg/mL (≈ 2.39 µM).

As to polymyxin, in data set [3] (setting [7]), the average serum concentration result is “approximately 2.8 μg/mL” and the serum concentration range was 680 to 4880 ng/mL.

polymyxin B: the “DiSC3(5) fluorescence signal (membrane potential)” value in the data set with E. coli hipA7 cells [4] is on record as “no significant enhancement of DiSC3(5) fluorescence signal”. In addition, the “persistence survival level / persistence rate” value in data set [1] is given as 0.001%. Moreover, the results for the “PI fluorescence (membrane disruption)” value in the data set on E. coli hipA7 cells [5] (after 2 hours) and with E. coli hipA7 cells [5] (after 4 hours) were “majority of cells showed no increase in PI fluorescence” and “only a minimal number of cells exhibiting detectable signals”, respectively. Further, the MIC in data set [2] amounted to 0.3 µg/mL. Moreover, the “survival rate / viability” value with E. coli hipA7 strain is given as “Approximately 10%”.
